Assay results from PubChem BioAssay AID248 (DTP/NCI, 2004).
Several values for one entry are separate records, joined by “and”; a condition that tells them apart may be missing. Identical values can stand only once. Inconclusive results and toxic doses are left out. No stated cut-off is given here; in the data, active means T/C of 150% or more; inactive means T/C below 125%.

System: L1210 leukemia ip in BDF1 mice, survival T/C
Assay: NCI In Vivo Anticancer Drug Screen. Data for tumor model L1210 Leukemia (intraperitoneal) in B6D2F1 (BDF1) mice
Conditions: endpoint: mean survival time, higher = longer survival
Procedure, shortened: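 Transplantable tumor model; survival measured in treated vs vehicle control mice. Value = treated/control.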

[1] = dose: 100.0 mg/kg/injection, schedule: Q01DX001 (ip), vehicle: carboxymethylcellulose (CMC)
[2] = dose: 200.0 mg/kg/injection, schedule: Q01DX001 (ip), vehicle: carboxymethylcellulose (CMC)
[3] = dose: 400.0 mg/kg/injection, schedule: Q01DX001 (ip), vehicle: carboxymethylcellulose (CMC)
[4] = dose: 50.0 mg/kg/injection, schedule: Q01DX001 (ip), vehicle: saline
[5] = dose: 100.0 mg/kg/injection, schedule: Q01DX001 (ip), vehicle: saline
[6] = dose: 200.0 mg/kg/injection, schedule: Q01DX001 (ip), vehicle: saline
[7] = dose: 400.0 mg/kg/injection, schedule: Q01DX001 (ip), vehicle: saline
[8] = dose: 100.0 mg/kg/injection, schedule: Q01DX001 (ip), vehicle: saline with Tween-80
[9] = dose: 100.0 mg/kg/injection, schedule: Q01DX009 (ip), vehicle: saline with Tween-80
[10] = dose: 100.0 mg/kg/injection, schedule: Q04DX002 (ip), vehicle: saline with Tween-80
[11] = dose: 200.0 mg/kg/injection, schedule: Q01DX001 (ip), vehicle: saline with Tween-80
[12] = dose: 200.0 mg/kg/injection, schedule: Q01DX009 (ip), vehicle: saline with Tween-80
[13] = dose: 200.0 mg/kg/injection, schedule: Q04DX002 (ip), vehicle: saline with Tween-80
[14] = dose: 400.0 mg/kg/injection, schedule: Q01DX001 (ip), vehicle: saline with Tween-80
[15] = dose: 400.0 mg/kg/injection, schedule: Q04DX002 (ip), vehicle: saline with Tween-80
[16] = dose: 12.5 mg/kg/injection, schedule: Q01DX009 (ip), vehicle: saline with Tween-80
[17] = dose: 25.0 mg/kg/injection, schedule: Q01DX009 (ip), vehicle: saline with Tween-80
[18] = dose: 100.0 mg/kg/injection, schedule: Q04DX003 (ip), vehicle: saline with Tween-80
[19] = dose: 100.0 mg/kg/injection, schedule: Q01DX009 (ip), vehicle: Klucel (hydroxypropylcellulose) (HPC)
[20] = dose: 100.0 mg/kg/injection, schedule: Q04DX002 (ip), vehicle: Klucel (hydroxypropylcellulose) (HPC)
[21] = dose: 200.0 mg/kg/injection, schedule: Q01DX009 (ip), vehicle: Klucel (hydroxypropylcellulose) (HPC)
[22] = dose: 200.0 mg/kg/injection, schedule: Q04DX002 (ip), vehicle: Klucel (hydroxypropylcellulose) (HPC)
[23] = dose: 400.0 mg/kg/injection, schedule: Q04DX002 (ip), vehicle: Klucel (hydroxypropylcellulose) (HPC)

Measured: T/C

CC(=O)Nc1ccc(Cc2ccc3[nH]c(=O)cc(C)c3c2)cc1
inactive: [1] 96 % of control | [2] 98 % of control | [3] 101 % of control

CC1CC=C(C(=O)O)CC1 (configuration not stated)
inactive: dose: 50.0 mg/kg/injection, schedule: Q01DX001 (ip), vehicle: other 90 % of control | dose: 100.0 mg/kg/injection, schedule: Q01DX001 (ip), vehicle: other 95 % of control | dose: 200.0 mg/kg/injection, schedule: Q01DX001 (ip), vehicle: other 93 % of control | dose: 400.0 mg/kg/injection, schedule: Q01DX001 (ip), vehicle: other 95 % of control

O=c1oc2ccccc2cc1P(=O)(O)O
inactive: [4] 91 % of control | [5] 95 % of control | [6] 95 % of control | [7] 97 % of control

COc1ccc(Cl)cc1NC(=O)Oc1c(C)cccc1C
inactive: [8] 106 % of control | [9] 96 % of control | [10] 95 % of control and 89 % of control | [11] 90 % of control | [12] 98 % of control | [13] 95 % of control and 97 % of control | [14] 96 % of control | dose: 400.0 mg/kg/injection, schedule: Q01DX009 (ip), vehicle: saline with Tween-80 102 % of control | [15] 95 % of control and 98 % of control

CCOC(=O)C1=C(C)NC(C)=C(C(=O)OCC)C1c1ccccc1[N+](=O)[O-]
inactive: dose: 6.25 mg/kg/injection, schedule: Q01DX009 (ip), vehicle: saline with Tween-80 97 % of control | [16] 108 % of control | [17] 98 % of control and 105 % of control | [18] 90 % of control

C[CH2][Ge]1([CH2]C)[CH2]CC2(C[CH2]1)NC(=O)N(CCCN(C)C)C2=O
inactive: dose: 100.0 mg/kg/injection, schedule: Q04DX002 (ip), vehicle: saline 100 % of control | dose: 200.0 mg/kg/injection, schedule: Q04DX002 (ip), vehicle: saline 105 % of control

Fc1cc(F)c(F)c(Nc2ccccc2)c1F
inactive: dose: 25.6 mg/kg/injection, schedule: Q04DX002 (ip), vehicle: saline with Tween-80 113 % of control | dose: 64.0 mg/kg/injection, schedule: Q04DX002 (ip), vehicle: saline with Tween-80 89 % of control | dose: 160.0 mg/kg/injection, schedule: Q04DX002 (ip), vehicle: saline with Tween-80 95 % of control | [15] 106 % of control

COc1c(Cl)c(Cl)c(Cl)c(Cl)c1NC(C)=O
inactive: dose: 100.0 mg/kg/injection, schedule: Q01DX001 (ip), vehicle: acetone 102 % of control | dose: 200.0 mg/kg/injection, schedule: Q01DX001 (ip), vehicle: acetone 100 % of control | dose: 400.0 mg/kg/injection, schedule: Q01DX001 (ip), vehicle: acetone 94 % of control

COP(=O)(OCCCCCl)C(Cl)(Cl)Cl (configuration not stated)
inactive: [5] 102 % of control | [6] 102 % of control | [7] 104 % of control

CC(=O)OCC1OC(N2C(=O)NC(=O)C3C4OC(=O)OC4C32)C(OC(C)=O)C1OC(C)=O (configuration not stated)
inactive: dose: 25.0 mg/kg/injection, schedule: Q01DX005 (ip), vehicle: other 108 % of control | dose: 50.0 mg/kg/injection, schedule: Q01DX005 (ip), vehicle: other 100 % of control | dose: 100.0 mg/kg/injection, schedule: Q01DX005 (ip), vehicle: other 106 % of control | dose: 200.0 mg/kg/injection, schedule: Q01DX005 (ip), vehicle: other 106 % of control | dose: 400.0 mg/kg/injection, schedule: Q01DX005 (ip), vehicle: other 108 % of control

CCCCCCCCCCCC(=O)Nc1ccc(N(C)C(C)=O)cc1
inactive: [19] 90 % of control | [20] 89 % of control | [21] 95 % of control | [22] 100 % of control | dose: 400.0 mg/kg/injection, schedule: Q01DX009 (ip), vehicle: Klucel (hydroxypropylcellulose) (HPC) 97 % of control | [23] 100 % of control

Cc1scc[n+]1C
inactive: dose: 75.0 mg/kg/injection, schedule: Q01DX001 (ip), vehicle: saline 104 % of control | dose: 150.0 mg/kg/injection, schedule: Q01DX001 (ip), vehicle: saline 102 % of control | dose: 300.0 mg/kg/injection, schedule: Q01DX001 (ip), vehicle: saline 107 % of control

CN(C)CCOC(=O)c1ccccc1CBr
inactive: dose: 25.0 mg/kg/injection, schedule: Q01DX009 (ip), vehicle: saline 97 % of control | dose: 50.0 mg/kg/injection, schedule: Q01DX009 (ip), vehicle: saline 95 % of control | dose: 75.0 mg/kg/injection, schedule: Q01DX009 (ip), vehicle: saline 93 % of control

COc1ccc(C(=O)c2cc(OC)c(OC)c(OC)c2)cc1OC
inactive: dose: 50.0 mg/kg/injection, schedule: Q04DX003 (ip), vehicle: saline 98 % of control | [1] 102 % of control | dose: 100.0 mg/kg/injection, schedule: Q01DX009 (ip), vehicle: saline 108 % of control | dose: 100.0 mg/kg/injection, schedule: Q04DX003 (ip), vehicle: saline 100 % of control | [2] 103 % of control | dose: 200.0 mg/kg/injection, schedule: Q01DX009 (ip), vehicle: saline 112 % of control | dose: 200.0 mg/kg/injection, schedule: Q04DX003 (ip), vehicle: saline 104 % of control | [3] 103 % of control | dose: 400.0 mg/kg/injection, schedule: Q01DX009 (ip), vehicle: saline 101 % of control | dose: 400.0 mg/kg/injection, schedule: Q04DX003 (ip), vehicle: saline 96 % of control

CCP(=S)(CC)CC
inactive: [20] 104 % of control | [22] 96 % of control | [23] 93 % of control

O=C(NC(=S)Nc1ccc2ccccc2c1)c1ccc(Cl)cc1Cl
inactive: [8] 100 % of control | [10] 93 % of control and 90 % of control | [11] 101 % of control | [13] 93 % of control and 96 % of control | [14] 96 % of control | [15] 104 % of control and 86 % of control

CCCCCCCCCCCCCCCC[N+](C)(C)c1nc(Cl)nc(Cl)n1
inactive: dose: 3.75 mg/kg/injection, schedule: Q01DX009 (ip), vehicle: saline 102 % of control | dose: 7.5 mg/kg/injection, schedule: Q01DX009 (ip), vehicle: saline 97 % of control | dose: 15.0 mg/kg/injection, schedule: Q01DX009 (ip), vehicle: saline 96 % of control | dose: 30.0 mg/kg/injection, schedule: Q01DX009 (ip), vehicle: saline 96 % of control | dose: 37.5 mg/kg/injection, schedule: Q04DX003 (ip), vehicle: saline 102 % of control | dose: 50.0 mg/kg/injection, schedule: Q01DX001 (ip), vehicle: water 105 % of control | dose: 75.0 mg/kg/injection, schedule: Q04DX003 (ip), vehicle: saline 102 % of control | dose: 100.0 mg/kg/injection, schedule: Q01DX001 (ip), vehicle: water 100 % of control

Cc1ccc(S(=O)(=O)N(CCCc2c(C)ncnc2Cl)c2ccccc2)cc1
inactive: [4] 101 % of control | [5] 92 % of control | [6] 98 % of control | [7] 95 % of control

O=C(COCC(=O)N/N=C/c1ccccc1Cl)N/N=C\c1ccccc1Cl
inactive: [19] 93 % of control | [21] 95 % of control

O=C(Nc1ccc2c(c1)OCO2)O/N=C\c1cccnc1
inactive: [16] 97 % of control | [17] 105 % of control | dose: 50.0 mg/kg/injection, schedule: Q01DX009 (ip), vehicle: saline with Tween-80 100 % of control | [9] 86 % of control | [18] 100 % of control | [12] 91 % of control | dose: 200.0 mg/kg/injection, schedule: Q04DX003 (ip), vehicle: saline with Tween-80 113 % of control | dose: 400.0 mg/kg/injection, schedule: Q04DX003 (ip), vehicle: saline with Tween-80 111 % of control

CNc1ccccc1C(=O)N/N=C/c1ccc(O)c(OC)c1
inactive: [20] 99 % of control | [22] 93 % of control | [23] 96 % of control
